Data taken from PMC6776562, “Inhibition of Rac1-dependent forgetting alleviates memory deficits in animal models of Alzheimer’s disease” (Protein & Cell, 2019).

Assays:
[1] = In vitro metabolic stability in liver microsomes (species not separated); format: in vitro ADME, human, monkey, and mouse; settings: all species of Table 4
Description: Measurements of metabolic stability can be performed with liver microsomes, which are known to contain the major drug-metabolizing enzymes and UDP-glucuronosyltransferase (Baranczewski et al., [2006]). The in vitro metabolic stability levels of CS7171 and JKF-034 were measured using human, monkey, and mouse liver microsomes. The metabolic half-time (T1/2) and intrinsic clearance (Clint) were assayed using LC-MS analysis. Ketanserin is a potent, orally effective antagonist of endogenous serotonin. Its pharmacological profile is well studied (Brogden and Sorkin, [1990]). In this study, we used ketanserin as a control. If the T1/2 of the tested compound was 30–120 min, the compound was considered to show moderate metabolism in liver microsomes. If the T1/2 value was less than 30 min, the compound was considered to be susceptible to metabolism in liver microsomes.

[2] = Pharmacokinetics study in CD1 mice; format: in vivo; settings: for AUC0-infinity / AUC0-t / T1/2 / Tmax / F (bioavailability): CD1 mice; for AUC0-infinity / AUC0-t / T1/2 / Tmax: plasma, estimated value, n = 3; for AUC0-infinity / AUC0-t / T1/2: P.O 50 mg/kg CS7171, 40 mg/kg JKF-034 (I.V 10 and 2.5 mg/kg), route of the parameter not stated; for Tmax: P.O 50 mg/kg CS7171, 40 mg/kg JKF-034; for F (bioavailability): P.O 50 mg/kg vs I.V 10 mg/kg CS7171, P.O 40 mg/kg vs I.V 2.5 mg/kg JKF-034
Description: For the CS7171 and JKF-034 pharmacokinetics (PK) assays, 30 CD1 mice were purchased from JH Laboratory Animal Co. LTD (Qualification No: SCXK (SH) 2017-001220170012002565). A total of 18 CD1 mice were grouped for intravenous injection (I.V) with 10 mg/kg CS7171 and 2.5 mg/kg JKF-034. Sampling was performed at 0.083, 0.25, 0.5, 1, 3, 6 and 24 h after administration. A total of 12 CD1 mice were grouped for oral administration (P.O) of 50 mg/kg CS7171 and 40 mg/kg JKF-034. Sampling was performed at 0.25, 0.5, 1, 3, 6 and 24 h after administration. The blood samples were maintained in wet ice first and centrifuged to obtain plasma within 15 min post-sampling. Subsequently, the samples were subjected to LC-MS/MS analysis.

Rac1 = Rac1 (Mus musculus, UniProt P63001); experiment: Rac1 activity (Rac1-GTP/total Rac1) in hippocampal tissue by PAK-PBD pull-down and Western blot after drug administration; format: in vivo, APP/PS1 mice; settings: APP/PS1 mice (eight-month-old); oral CS7171 50 mg/kg, CS7170 50 mg/kg, JKF-034 40 mg/kg once per day
Description: We first assayed Rac1 activity in hippocampal tissues from AD patients and healthy age-matched, non-demented controls (Detailed information is provided in Table 1). The levels of the guanosine triphosphate (GTP)-bound active form of Rac1 were measured using the p21-binding domain (PBD) pull-down assay. The GTP-bound active form of Rac1 was pulled down through the interactive p21-activated kinase (PAK) fragment using PAK-PBD beads and measured using a Western blot assay (Fig. 1A), as described in previous studies (Shuai et al., [2010]; Liu et al., [2016]) from our laboratory and studies conducted by other research groups (Sander et al., [1998]; Barnes et al., [2008]). The total amount of Rac1 and actin were also evaluated using the Western blot analyses (See MATERIALS AND METHODS). […] Since there were no significant differences in total Rac1 levels between the experimental and control groups (See representative Western blot in all relevant figures), the ratio of Rac1-GTP to total Rac1 was taken as a measure of Rac1 activity. […] Consistent with this observation, Rac1 activity was also elevated in the hippocampus of APP/PS1 mice at different age (Fig. 1D). […] This increase was more pronounced in older flies (Fig. S1F).
Mice were treated with EHop-016 (10 mg/kg), CS7170 (50 mg/kg), CS7171 (50 mg/kg), and JKF-034 (40 mg/kg). These drugs were dissolved in saline (0.9% NaCl) containing 0.5% Tween-80 (Sigma P4780). Each mouse received 200 μL of the solution by intragastric administration once per day (administered at 9:00 am). The drug administration was started seven days before the beginning of the Morris water maze (MWM) task and was continued until the end of the assay. All control groups were fed with vehicle solution.
The hippocampal tissues from human subjects and mice were harvested and stored in a liquid nitrogen tank for biochemical assay. The tissues were homogenized in cold lysis buffer (Merck-Millipore, 20-168). The insoluble debris were removed after centrifugation at 13,000 rpm (for 10 min, at 4 °C). For GTP-bound Rac/Cdc42, lysates were incubated with GST-tagged PAK (p21-activated kinase)-PBD agarose beads (Cytoskeleton, PAK02) overnight at 4 °C. On the second day, the beads were washed three times with lysis buffer before subjecting them to SDS-PAGE (15%) and transferring them onto nitrocellulose membranes (Millipore, HATF00010). The membranes were incubated with primary antibodies (for Rac1: BD Transduction Laboratories, #610650, 1:2,000 dilution; for Cdc42, Santa Cruz Biotechnology, lot No. sc-8401, 1:500 dilution) overnight at 4 °C and with HRP-conjugated goat anti-mouse IgG (Cell Signaling Technology, #7076) for 1 h at room temperature. Intensities of the detected bands were analyzed using ImageJ software (National Institutes of Health). The total amount of Rac1 in the lysate was detected using a routine Western blot procedure. RhoA-GTP levels were measured by using the Rho-GTP monoclonal antibody (New East, lot No. 26904, Dilution: 1:1,000). Information regarding the other antibodies used is as follows: anti-RhoA (67B9), Cell Signaling, lot No. #2117, dilution: 1:1,000; anti-Actin, Clone C4, Millipore, lot No. #3018859, dilution: 1:2,000; anti-Amyloid 1-42 6E10, BioLegend, lot No. 803001, dilution: 1:1,000; anti-Phospho-PAK1 (Ser144)/PAK2 (Ser141), Cell Signaling, lot No. #2606, dilution: 1:1,000.

T1/2 in liver microsomes [1] | AUC0-infinity [2] | AUC0-t [2] | T1/2 [2] | Tmax [2] | F (bioavailability) [2] | hippocampal Rac1 activity (Rac1-GTP/total Rac1) (Rac1) | SMILES | metabolic half-time (T1/2) of JKF-034 relative to CS7171 ([2]; CD1 mice PK)
less than 30 min | 4,160 h*ng/mL | 4,101 h*ng/mL | 56.6 min | 15 min | 28.2% | inhibited hippocampal Rac1 activity | O=C1NN(c2ccc(Cl)c(Cl)c2)C(=O)C1=Cc1ccc(O)c(N(O)O)c1 [CS7171] | –
less than 30 min | 1,692 h*ng/mL | 1,262 h*ng/mL | 551 min | 30 min | 19.3% | inhibited Rac1 activity | O=S(=O)(c1ccccc1)N1CCN(Cc2ccccc2)CC1 [JKF-034] | about ten times higher than that of CS7171
